Legend:
[1] = test system: androgen-independent human prostate cancer cell line, PC-3; assay: XTT cell proliferation assay, PC-3; format: cell-based; details: lycopene 0.1 and 0.25 mg/ml
Experimental: (§1) Cell Proliferation Assays (FIGS. 7, 8, 16, and 17):
(§2) Human androgen-sensitive prostate cancer cell line, LNCaP, and androgen-insensitive prostate cancer cell line, PC-3 were cultured in RPMI-1640 medium supplemented with 2 mM L-glutamine and 10% fetal bovine serum (FBS). For proliferation assays LNCaP and PC-3 cells were seeded at 15,000 cells/well density in 24-well plates with complete medium (with 10% FBS). Cells were let to attach for 20 h and then, the culture medium was exchanged for fresh serum-free medium containing the respective treatments (androgens and test compounds). Viable cells content in each well was determined 72 h afterwards.
(§3) Proliferation was determined by the XTT cell viability assay (Cell Proliferation Kit II (XTT), Sigma-Aldrich, St. Louis, Mo., USA). This is a colorimetric assay that analyzes the number of viable cells by the cleavage of tetrazolium salts added to the culture medium. The cleavage product of tetrazolium salt XTT, in contrast to MTT, is soluble in water. The tetrazolium salt XTT is cleaved to formazan by a complex cellular mechanism. This bioreduction occurs in viable cells only. […] After this incubation period, the amount of formazan dye formed was quantitated using a plate reader. The measured absorbance at 490 nm directly correlates to the number of viable cells.

[2] = test system: androgen-sensitive human prostate cancer cell line, LNCaP; assay: XTT cell proliferation assay, LNCaP; format: cell-based
Experimental: as §1, §2, §3

[3] = test system: human prostate strips from patients with BPH/LUTS; assay: Organ bath, norepinephrine-contracted human prostate strips
Experimental: (§4) Organ Bath Experiments with Human Prostate and Bladder Tissues (FIGS. 10, 12, 19, and 20):
(§5) Specimens of human prostate and bladder neck were obtained from patients undergoing suprapubic adenomectomy (Millin's approach) for benign prostatic hyperplasia (BPH). […]
(§6) Human prostate and bladder neck specimens were cleaned of fat and connective tissue and cut into strips for organ bath assays. […] Tissues were subsequently exposed to 125 mM K^+ (equimolar substitution of […] in KHS) and contractile response was measured to check functionality. The relaxant effect induced by increasing doses of the NtB extract or the vehicle (distilled water) was evaluated in human prostate and bladder neck strips precontracted with 3-10 μM norepinephrine (NE) (80% of K^+-induced contraction, approximately) (FIG. 10). Relaxations of human prostate and bladder neck induced by PDES inhibition were evaluated by adding increasing concentrations of tadalafil (1 nM to 100 μM) on strips precontracted with NE and previously treated with NtB (10 mg/ml) or vehicle (distilled water) (FIG. 12). […] Concentration-response (relaxation) curves to lycopene (0.025 to 0.5 mg/ml) were also determined after NE-induced contraction in human bladder neck (FIG. 20A).

[4] = test system: prostatic specific antigen (PSA) production by LNCaP; assay: Androgen-stimulated PSA production (ELISA) in LNCaP cells; format: cell-based, human; details: testosterone or dihydrotestosterone (40 nM), 24 h; lycopene 0.1 and 0.25 mg/ml
Experimental: Prostatic-Specific Antigen (PSA) Determinations (FIGS. 9 and 18):
For this purpose, LNCaP cells were seeded at 25,000 cells/well in 24-well plates and let to grow in complete medium (10% FBS) at 80% confluence, approximately, that is typically achieved after 48 h. The culture medium was then exchanged for fresh serum-free medium containing the respective treatments (androgens and/or NtB and/or lycopene). Conditioned media was collected 24 h afterwards and PSA concentrations were determined by using a colorimetric ELISA kit following manufacturer's instructions (Ray Biotech, Norcross, Ga., USA).

[5] = test system: human bladder neck strips from patients with BPH/LUTS; assay: Organ bath, norepinephrine-contracted human bladder neck strips
Experimental: as §4, §5, §6

With `CC(C)=CCC/C(C)=C/C=C/C(C)=C/C=C/C(C)=C/C=C/C=C(C)/C=C/C=C(C)/C=C/C=C(\C)CCC=C(C)C` [lycopene] the “proliferation of PC-3 cells in the absence of androgen stimulation” value [1] was “did not significantly influence proliferation”, the “proliferation of PC-3 cells in the presence of T or DHT” value ([1]; T or DHT 40 nM) was “failed to significantly reduce proliferation” and the “testosterone- or dihydrotestosterone-induced increase in proliferation of LNCaP cells” value ([2]; lycopene 0.25 mg/ml, T or DHT 40 nM) was “effectively reversed”. The “proliferation of LNCaP cells in the absence of androgen stimulation” value ([2]; lycopene 0.1 and 0.25 mg/ml) was “did not significantly influence proliferation”, the “relaxation (reversion of NE-induced contraction) of human prostate strips” value [3] was “could have relaxant activity by itself” and the “androgen-stimulated PSA production in LNCaP cells” value [4] was “prevented”. The “relaxation (reversion of NE-induced contraction) of human bladder neck strips” value [5] was “could have relaxant activity by itself”.

Source: US20190183952A1, “METHODS FOR PREPARING ACTIVE EXTRACT AND APPLICATION THEREOF” (BEIJING BOXIN NATURE BIOTECH LTD., priority 2016, published 2019)
